Data on two substances can be found in patent US20250145715A1, “B7-H3 TARGETING FUSION PROTEINS AND METHODS OF USE THEREOF” (GT Biopharma, Inc., priority 2021, published 2025).

Data set [1] concerns lung cancer cell lines. Kind of data set: NK cell activation against lung cancer cell lines vs K562 / Raji. It is filed as cell-based, human. As for the experimental part:
ADCC was measured in a flow cytometry assay by evaluating degranulation via CD107a (lysosomal-associated membrane protein LAMP-1) and intracellular IFNγ production. Upon thawing, normal donor and patient-derived PBMCs or ascites cells were rested overnight (37° C., 5% CO2) in RPMI 1640 media supplemented with 10% fetal calf serum (RPMI-10). The next morning, they were suspended with tumor-target cells or media after washing twice with RPMI-10. Cells were then incubated with TriKEs or controls for 10 min at 37° C. Fluorescein isothiocyate (FITC)-conjugated anti-human CD107a monoclonal antibody (BD Biosciences, San Jose, CA, USA) was then added. Following an hour 37° C. incubation, GolgiStop (1:1500, BD Biosciences) and GolgiPlug (1:1000, BD Biosciences) were added for 3 h. After washing with phosphate buffered saline, the cells were stained with PE/Cy 7-conjugated anti-CD56 mAb, APC/Cy 7-conjugated anti-CD16 mAb, and PE-CF594-conjugated anti-CD3 mAb (BioLegend, San Diego, CA, USA). Cells were incubated for 15 min at 4° C., washed, and fixed with 2% paraformaldehyde. Cells were then permeabilized using an intracellular perm buffer (BioLegend) to evaluate production of IFNγ through detection via aBV650 conjugated anti-human IFNγ antibody (BioLegend). Samples were washed and evaluated in an LSRII flow cytometer (BD Biosciences, San Jose, CA, USA). […]

Data set [2] in a line: Toxicity assessment, weights of NSG mice engrafted with NK cells. The format is in vivo. To be noted: irradiated NSG mice, 1 million NK cells, treated three weeks, weights tracked 90 days. The procedure: As illustrated in FIGS. 32A-32F, cam1615B7-H3 TriKE mediates anti-tumor activity in vivo. Determination of in vivo activity is a critical step for translation. However, prior to evaluating the ability of the cam1615B7-H3 TriKE to induce function against tumor the potential for toxicity was assessed. To do this NSG mice were irradiated, engrafted with 1 million NK cells, treated with nothing, IL-15, or cam1615B7-H3 for three weeks, and weights were tracked over the course of 90 days post initial treatment. […] This is not surprising given the low toxicity profile of IL-15 and the safety profile of B7-H3. […] In this model, human NK cells and human high grade serous MA-148-luc cells are injected into the peritoneal cavity of NSG mice.

Data set [3] has as its system MM1S cells. Kind of data set: IncuCyte Zoom NK cell killing of MM1S. The format is cell-based, human. To be noted: E:T 2:1 and 4:1. The source says:
FIGS. 7A-7B illustrate the ability of peripheral blood NK cells with or without B7-H3-TriKE to kill myeloma cells in live imaging IncuCyte Zoom assays. FIG. 7A is a graph showing the effects with effector:target (E:T) ratios of 2:1 and 4:1 on MM1S cells. FIG. 7B is a graph showing the effects with effector:target (E:T) ratios of 2:1 and 4:1 on U266 cells.
FIGS. 8A-8D illustrate the ability of peripheral blood NK cells with or without B7-H3-TriKE to kill myeloma cells in live imaging IncuCyte Zoom assays. FIG. 8A is a graph showing the effects with effector:target (E:T) ratios of 2:1 and 4:1 on H929 cells. FIG. 8B is a graph showing the effects with effector:target (E:T) ratios of 2:1 and 4:1 on MM1S cells. FIG. 8C is a graph showing the effects with effector:target (E:T) ratios of 2:1 and 4:1 on RPMI-8226 cells. FIG. 8D is a graph showing the effects with effector:target (E:T) ratios of 2:1 and 4:1 on U266 cells.
FIGS. 9A-9D illustrate the efficacy of B7-H3-TriKE with the proteasome inhibitor bortezomib (10 nM) and the immunomodulatory drug lenalidomide (5 μM). FIG. 9A is a graph showing the effect of the combination therapy on H929 cells after 48 hours. FIG. 9B is a graph showing the effect of the combination therapy on RPMI-8226 cells after 48 hours. FIG. 9C is a graph showing the effect of the combination therapy on MM1S cells after 48 hours. FIG. 9D is a graph showing the effect of the combination therapy on U266 cells after 48 hours.
The ability of peripheral blood NK cells with or without B7-H3-TriKE to kill myeloma cells was compared in live imaging IncuCyte Zoom assays with escalating doses of TriKE. Maximal killing occurred with 3 nM concentration.
The efficacy of B7-H3-TriKE with the proteasome inhibitor bortezomib (10 nM) and the immunomodulatory drug lenalidomide (5 μM) was also tested. Cytotoxicity curves were compared by repeated measures ANOVA and performed in triplicate.

As to “cam1615B7-H3: second-generation TriKE: humanized camelid anti-CD16 VHH, human wild-type IL-15, anti-B7-H3 mAb 376.96 scFv; SEQ ID NO:1”, the “NK cell degranulation and IFNγ production against lung cancer cells vs K562 targets alone” value in data set [1] is listed as “higher than that seen when NK cells are incubated with K562 targets alone”. Moreover, the “B7-H3 specificity of activation against lung cancer cell lines” value in data set [1] (vs B7-H3− Raji cells) was “specific to B7-H3 expression”. For the same substance, in data set [2], the “body weight vs controls” value is “no significant differences”.

For “B7-H3 TriKE: camelid nanobodies targeting CD16 and B7-H3 joined by IL-15 and two linkers; sequence table equates the name with cam1615B7-H3”, the “NK cell killing of MM1S” value in data set [3] is “significantly enhanced killing”.
